Experimental data from publication PMC6191125, “Peptidoglycan potentiates the membrane disrupting effect of the carboxyamidated form of DMS-DA6, a Gram-positive selective antimicrobial peptide isolated from Pachymedusa dacnicolor skin” (PLoS ONE, 2018).
In brackets after ≈: the same amount, converted by molar mass. Residues, ends and D or L forms follow the SMILES beside them.

Tests used:
[1] = test system: E. coli ATCC 35218; assay type: cell-based, Escherichia coli; conditions: LB, 10^7 cfu/mL, 18 h at 37°C, peptide 0.2-100 μM, averaged over >=3 independent experiments in triplicate
Excerpt: (§1) Gram-negative bacterial strains, Escherichia coli ATCC 8739, Escherichia coli ATCC 35218, Escherichia coli ML 35p, Escherichia coli K12, Pseudomonas aeruginosa ATCC 27853, and Gram-positive bacterial strains, Enterococcus faecalis ATCC29212, Kocuria rhizophila ATCC 9341, Staphylococcus aureus ATCC 6538, Staphylococcus aureus ATCC 29213, Staphylococcus aureus ST 1065, Staphylococcus epidermidis BM 3302, and Bacillus subtilis subsp. subtilis CIP 52.65, as well as two multiresistant strains (Staphylococcus aureus DAR 5829 (http://www.ncbi.nlm.nih.gov/bioproject/228435) and Enterococcus faecium BM 4147 [20] were cultured as described previously. The minimal inhibitory concentration (MIC) of the peptides was determined by the microtiter broth dilution method. Overnight precultures were subcultured in Luria Bertani (LB) medium at 37°C with vigorous shaking until mid-log phase (~2h) and diluted to 10^7 cfu/mL. Peptide solutions were prepared at different concentrations (from 2 to 500 μM) by successive 2-fold dilutions in water from 1 mM stock solutions. In each row of a 96-well nonbinding surface plate, 90 μL of bacteria were incubated with 10 μL of peptide solutions for 18 h at 37°C. The final peptide concentrations ranged from 0.2 to 100 μM. Cell growth was evaluated by visual inspection and absorbance at 600 nm to determine the lowest concentration of peptide that prevented cell growth. Wells were either opaque, indicating stationary phase growth, or transparent indicating no growth. The lowest concentration showing no visible growth was considered as the MIC. After measurement of the MIC, the bactericidal activity was determined by the addition of resazurin dye (30 μL, 0.01% w/v) to each well [22]. The plates were further incubated at 37°C for 18 h. Wells in which the dye turned pink indicated live bacteria, whereas wells in which the dye remained blue indicated dead bacteria. The minimal bactericidal concentration (MBC) is the lowest concentration with blue coloration (99.9% of bacteria were killed). Three to five independent assays were performed in triplicate. Positive controls correspond to medium plus 0.2% formaldehyde and negative controls to medium without peptide.

[2] = test system: E. coli ATCC 8739; assay type: cell-based, Escherichia coli
Excerpt: as §1

[3] = test system: E. coli K12; assay type: cell-based, Escherichia coli; conditions: LB, 10^7 cfu/mL, 18 h at 37°C, peptide 0.2-100 μM, averaged over >=3 independent experiments in triplicate
Excerpt: as §1

[4] = test system: E. coli ML 35p; assay type: cell-based, Escherichia coli; conditions: LB, 10^7 cfu/mL, 18 h at 37°C, peptide 0.2-100 μM, averaged over >=3 independent experiments in triplicate
Excerpt: as §1

[5] = test system: Ps. aeruginosa ATCC 27853; assay type: cell-based, Pseudomonas aeruginosa; conditions: LB, 10^7 cfu/mL, 18 h at 37°C, peptide 0.2-100 μM, averaged over >=3 independent experiments in triplicate
Excerpt: as §1, with “Wells were either opaque, indicating stationary phase growth, or transparent indicating no growth. The lowest concentration showing no visible growth was considered as the MIC. After measurement of the MIC, the bactericidal activity was determined by the addition of resazurin dye (30 μL, 0.01% w/v) to each well [22]. The plates were further incubated at 37°C for 18 h. Wells in which the dye turned pink indicated live bacteria, whereas wells in which the dye remained blue indicated dead bacteria. The minimal bactericidal concentration (MBC) is the lowest concentration with blue coloration (99.9% of bacteria were killed). Three to five independent assays were performed in triplicate. Positive controls correspond to medium plus 0.2% formaldehyde and negative controls to medium without peptide.” left out

[6] = test system: S. epidermidis BM3302; assay type: cell-based, Staphylococcus epidermidis
Excerpt: as §1

[7] = test system: K. rhizophila ATCC 9341; assay type: cell-based, Kocuria rhizophila
Excerpt: as §1

[8] = test system: B. subtilis CIP 52.65; assay type: cell-based, Bacillus subtilis subsp. subtilis
Excerpt: as §1

[9] = test system: S. aureus ATCC 29213; assay type: cell-based, Staphylococcus aureus
Excerpt: as §1

[10] = test system: S. aureus ATCC 6538; assay type: cell-based, Staphylococcus aureus
Excerpt: as §1

[11] = test system: S. aureus DAR 5829; assay type: cell-based, Staphylococcus aureus; conditions: S. aureus DAR 5829, multi-resistant strain
Excerpt: as §1

[12] = test system: S. aureus ST 1065; assay type: cell-based, Staphylococcus aureus
Excerpt: as §1

[13] = test system: E. faecalis ATCC 29212; assay type: cell-based, Enterococcus faecalis
Excerpt: as §1

[14] = test system: E. faecium BM 4147; assay type: cell-based, Enterococcus faecium; conditions: E. faecium BM 4147, multi-resistant strain
Excerpt: as §1

[15] = test system: A549 cells; test: Cytotoxicity, trypan blue exclusion; assay type: cell-based; conditions: A549 human lung carcinoma cells, 2-hour incubation at 37°C, 5% CO2, concentrations as high as 100 μM; 3 independent experiments in triplicate
Description: A549 cells (ATCC CCL-185), a human lung carcinoma cell line, were cultivated at 37°C, humid atmosphere and 5% CO2, in Petri dishes with DMEM Advanced medium (Gibco) supplemented with 5% of fetal bovine serum (FBS), 2 mM of glutamine, 100 U of penicillin and 50 μg/mL of streptomycin (Gibco). When the cells reached 80% confluence, the medium was discarded and the cells were washed with PBS 1×, before being treated with Trypsin 1× for 2 minutes to detach them form the culture dish. Cells were then resuspended in DMEM medium, seeded in a 48-well culture plate (500 000 cells/well), and either form of DMS-DA6 solubilized in PBS 1× was added and incubated for 2 hours at 37°C, 5% CO2. DMSO 30% was used as a positive control to induce cell death, and DMEM medium as negative control. After incubation, cell viability was assessed by trypan blue exclusion.

[16] = test system: S. aureus ST1065; test: Bacterial membrane permeabilization (ONPG hydrolysis); assay type: cell-based, Staphylococcus aureus; conditions: S. aureus ST 1065, 2.5 mM ONPG, absorbance at 420 nm; two independent experiments in triplicate
Description: Membrane permeabilization was assessed by monitoring the hydrolysis of ortho-nitrophenyl β-D-galactopyranoside (ONPG) by the β-galactosidase enzyme, using the S. aureus ST1065 strain, specifically designed for membrane permeabilization assays, through detection of cytoplasmic β-galactosidase activity leakage. Bacteria were grown in LB to an absorbance of 0.5 at 600 nm, pelleted by centrifugation, and the pellets were washed twice with PBS. Pellets were then resuspended in 10% LB in PBS to an absorbance of 0.5 at 600 nm. Aliquots (15 μL) of bacterial suspension were mixed with 2.5 mM ONPG and incubated with various concentrations of peptide in a 96-well plate. The hydrolysis of ONPG was monitored by measuring the absorbance at 420 nm of released o-nitrophenol with a Fluostar Galaxy microplate reader (BMG LabTech, France).

[17] = Circular dichroism, helical content with lipid vesicles; assay type: physicochemical; conditions: CD, 10 mM phosphate buffer pH 7.4, 20 μM peptide, peptide/lipid molar ratio 1/50
Excerpt: Lipid vesicles were formed using bacterial lipids extracted as described above or commercially available synthetic lipids. The lipids, 1-palmitoyl-2-oleoyl-sn-glycero-3-phosphocholine (POPC), 1-palmitoyl-2-oleoyl-sn-glycero-3-phospho-(1'-rac-glycerol) (POPG), 1,2-dimyristoyl-sn-glycero-3-phosphoglycerol (DMPG), 1.2-dioleyl-sn-glycero-3-phosphoglycerol (DOPG), and 1',3'-bis[1,2-dioleoyl-sn-glycero-3-phospho]-sn-glycerol (CL), were obtained from Avanti Polar Lipids, Inc (Alabaster, AL) and used without further purification. Desired mixtures of phospholipids were first dried in glass tubes under nitrogen and then maintained under a reduced pressure for at least 60 min. Lipid films were subsequently hydrated in PBS to yield a lipid concentration of 10 mg.mL^-1 for tryptophan fluorescence experiments, 1 mg.mL^-1 for DSC experiments, and in PB at 1 mM for CD experiments. The resulting dispersions of large multilamellar vesicles (MLVs) were subjected to 3 to 5 freeze-thaw cycles and then extruded 15 times through polycarbonate membranes (100 nm pore size, Whatman, Maidstone, UK) on an Avanti mini-extruder apparatus (Avanti Polar Lipids, Inc., Alabaster, AL) to generate large unilamellar vesicles (LUVs). Lipid vesicles were used either alone, or in combination with S. aureus peptidoglycan (PGN) (Sigma).
The CD spectra of the peptides were recorded as previously described. […]

[18] = LB, 10^7 cfu/mL, 18 h at 37°C, averaged over >=3 independent experiments in triplicate
[19] = resazurin dye added after MIC, further 18 h at 37°C, 99.9% killed, averaged over >=3 experiments in triplicate

CC[C@H](C)[C@H](NC(=O)CNC(=O)[C@H](Cc1c[nH]c2ccccc12)NC(=O)[C@@H](NC(=O)CN)C(C)C)C(=O)N[C@@H](C)C(=O)N[C@@H](CCCCN)C(=O)N[C@H](C(=O)N[C@@H](C)C(=O)NCC(=O)N[C@@H](CCCCN)C(=O)N[C@H](C(=O)N[C@@H](CC(C)C)C(=O)NCC(=O)N[C@@H](CC(N)=O)C(=O)N[C@H](C(=O)N[C@@H](CC(C)C)C(=O)N1CCC[C@H]1C(=O)N[C@@H](Cc1c[nH]cn1)C(=O)N[C@H](C(=O)N[C@@H](Cc1ccccc1)C(=O)N[C@@H](CO)C(=O)N[C@@H](CO)C(=O)N[C@@H](CC(N)=O)C(=O)N[C@@H](CCC(N)=O)C(=O)N[C@@H](CO)C(N)=O)C(C)C)[C@@H](C)CC)C(C)C)[C@@H](C)CC [DMS-DA6-NH2] (H-GVWGIAKIAGKVLGNILPHVFSSNQS-NH2)
MIC [1]: >100 µM
MIC [2, 18]: 25 µM (≈ 67.3 µg/mL)
MBC [2, 19]: 50 µM (≈ 135 µg/mL)
MIC [3]: >100 µM
MIC [4]: >100 µM
MIC [5]: >100 µM
MIC [6, 18]: 12.5 µM (≈ 33.7 µg/mL)
MBC [6, 19]: 12.5 µM (≈ 33.7 µg/mL)
MIC [7, 18]: 3.12 µM (≈ 8.4 µg/mL)
MBC [7, 19]: 3.12 µM (≈ 8.4 µg/mL)
MIC [8, 18]: 6.25 µM (≈ 16.8 µg/mL)
MBC [8, 19]: 6.25 µM (≈ 16.8 µg/mL)
MIC [9, 18]: 3.12 µM (≈ 8.4 µg/mL)
MBC [9, 19]: 6.25 µM (≈ 16.8 µg/mL)
MIC [10, 18]: 6.25 µM (≈ 16.8 µg/mL)
MBC [10, 19]: 6.25 µM (≈ 16.8 µg/mL)
MIC [11, 18]: 25 µM (≈ 67.3 µg/mL)
MBC [11, 19]: 50 µM (≈ 135 µg/mL)
MIC [12, 18]: 12.5 µM (≈ 33.7 µg/mL)
MBC [12, 19]: 12.5 µM (≈ 33.7 µg/mL)
MIC [13, 18]: 50 µM (≈ 135 µg/mL)
MBC [13, 19]: 50 µM (≈ 135 µg/mL)
MIC [14, 18]: 25 µM (≈ 67.3 µg/mL)
MBC [14, 19]: 25 µM (≈ 67.3 µg/mL)
death of A549 cells (trypan blue exclusion) [15]: neither DMS-DA6-OH (net charge +2) nor DMS-DA6-NH2 (net charge +3) resulted in the death
peptide concentration at which the maximal absorption intensity (ONPG hydrolysis) after 240 minutes was reached [16]: 12.5 µM
α-helix conformation ([17]; POPG LUVs): about 80%
α-helix conformation ([17]; pure zwitterionic POPC LUVs): 40%
intact peptide remaining: > 90%
